Results reported in patent US4755527A, “Aryl substituted aminomethyl benzene derivatives” (priority 1985, dated 1988).
Where two headings read alike, the source gives them in different places.

What was measured:
[1] = test system: patients; conditions: cited from earlier work
[2] = test system: cardiac cells; conditions: cited from earlier work
[3] = test system: Guinea Pig Ileum; assay: In vitro evaluation of anticholinergic activity in the isolated guinea pig ileum; set-up: species or system guinea pig (male Hartley); conditions: Cavia porcellus, read-out: Anticholinergic Inhibition of Guinea Pig Ileum (% inhibition at 4 mg/L)
Description: The following examples describe the in vitro evaluation of anticholinergic activity in the isolated guinea pig ileum. Fasted, male Hartley guinea pigs (300-400 g) were killed by a blow to the head. […] One end of the ileal strip was impaled onto a platinum wire electrode; and the other end was tied to a stationary glass rod. Basal tension was set at 0.1-0.3 g and peak developed tension in response to field stimulation (100-150 V, 10 msec pulse duration, 0.2 Hz) was measured with a tension transducer.

[4] = test system: ventricular arrhythmias induced by two-stage ligation of the left anterior descending coronary artery (Harris dog); assay: Antiarrhythmic activity by coronary ligation in the Harris dog model (i.v. infusion); type: in vivo, dog (adult mongrel); conditions: Canis lupus familiaris, read-out: Antiarrhythmic ED in Harris Dog
Description: The following examples describe the pharmacological evaluation of the compounds made in accordance with the present invention. In particular, these examples describe the evaluation of antiarrhythmic activity by coronary ligation in the well known Harris dog model. Ventricular arrhythmias were induced in adult mongrel dogs (10-15 kg) of either sex by two-stage ligation of the left anterior descending coronary artery. […] The test compound in saline was infused intravenously at a cumulative rate of […] to 1.2 mg/kg/min (base) unitl normal sinus rhythm or toxicity occurred. Normal sinus rhythm was defined as 90-100% normal complexes over a 5 min period.

[5] = test system: ventricular arrhythmias induced by ouabain (Ouabain dog); assay: Antiarrhythmic activity in the Ouabain dog model (i.v. infusion); type: in vivo; conditions: Canis lupus familiaris, read-out: Antiarrhythmic ED in Ouabain Dog
Description: The following examples describe the pharmacological evaluation of the compounds in accordance with the present invention. In particular, these examples describe the evaluation of antiarrhythmic activity in the Oubain dog model. […] The test compound was infused intravenously in saline at a rate of about 0.3 to about 5 mg/kg/min until normal sinus rhythm or toxicity occurred. Normal sinus rhythm was defined as 90-100% normal complexes over a 5 minute period.

[6] = 4 mg/L, inhibition of field-stimulated contractile tension
[7] = Harris dog, IV infusion, ED is the effective dose required to sustain normal sinus rhythm
[8] = administered to patients for the management of arrhythmias
[9] = Ouabain dog, IV infusion, ED is the effective dose required to sustain normal sinus rhythm

C=C[C@H]1C[N@@]2CC[C@H]1C[C@@H]2[C@@H](O)c1ccnc2ccc(OC)cc12 (stereo in doubt) [Quinidine, 6-methoxy-α-(5'-vinyl-2-quinuclidinyl)-4-quindinemethanol]
adverse side-effects in patients ([1]; human, in vivo): cardiotoxicity, diarrhea, nausea, vomiting, fever, hypertension and depression of myocardial contractility
anticholinergic activity (in words, background) [2]: indirect anticholinergic actions
effect on impulse formation, conduction velocity and refractory period of cardiac cells [2]: depress impulse formation, slow conduction velocity, and increase the duration of the refractory period of cardiac cells
inhibition at 4 µg/mL [3, 6]: 62%
minimal effective dose [4, 7]: 10.1 mg/kg

Oc1c(CN2CCCC2)cc(Nc2ncnc3ccccc23)cc1CN1CCCC1 [Changrolin, 4-[3',5'-bis[N-pyrrolidinylmethyl]-4'-hydroxyanilino]quinazoline, reference compound]
adverse side-effects in patients [1, 8]: skin discoloration in some patients
antiarrhythmic effectiveness (in words, background) ([1]; human, in vivo): effective antiarrhythmic agent
anticholinergic activity (in words, background) [2]: substantial anticholinergic activity
minimal effective dose [5, 9]: 5.5 mg/kg
inhibition at 4 µg/mL [3, 6]: 43%
minimal effective dose [4, 7]: 10.3 mg/kg

CC(C)N(CCC(C(N)=O)(c1ccccc1)c1ccccn1)C(C)C (stereo not drawn) [Disopyramide, α[2-(diisopropylamino)-ethyl]α-phenol-2-pyridineacetamide, reference compound]
adverse side-effects in patients [1, 8]: dryness of the mouth, blurred vision, constipation, and urinary retention, and depression of myocardial contractility
anticholinergic activity (in words, background) [2]: indirect anticholinergic actions
effect on impulse formation, conduction velocity and refractory period of cardiac cells [2]: depress impulse formation, slow conduction velocity, and increase the duration of the refractory period of cardiac cells
minimal effective dose ([5]; iv): 4.4 mg/kg
inhibition at 4 µg/mL [3]: 81%
minimal effective dose ([4]; iv): 6.8 mg/kg

O=C(Nc1cc(CN2CCCC2)c(O)c(CN2CCCC2)c1)c1ccc(C(F)(F)F)cc1 [XIII, N--(4-trifluoromethylbenzoyl)-3,5,-bis(N--pyrrolidinylmethyl)-4-hydroxyaniline]
minimal effective dose [5, 9]: 5.25 mg/kg
inhibition at 4 µg/mL [3, 6]: 43%
minimal effective dose [4, 7]: 9 mg/kg
